Data: PubChem BioAssay AID330 (DTP/NCI, 2004)
Several values for one entry are separate records, joined by “and”; a condition that tells them apart may be missing. Identical values can stand only once. Toxic doses and inconclusive results are not listed.

Tested on: P388 leukemia ip, CD2F1 mice, survival T/C
Assay: NCI In Vivo Anticancer Drug Screen. Data for tumor model P388 Leukemia (intraperitoneal) in CD2F1 (CDF1) mice
Conditions: endpoint: median survival time, higher = longer survival
Summary of the method: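 Mice carrying the transplanted tumor received test compound or vehicle. Survival was recorded in each group, and the value is the treated-group measurement divided by that of the vehicle-treated control group.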

[1] = dose: 60.0 mg/kg/injection, schedule: Q01DX005 (ip), vehicle: saline with Tween-80
[2] = dose: 120.0 mg/kg/injection, schedule: Q01DX005 (ip), vehicle: saline with Tween-80
[3] = dose: 240.0 mg/kg/injection, schedule: Q01DX005 (ip), vehicle: saline with Tween-80
[4] = dose: 200.0 mg/kg/injection, schedule: Q01DX009 (ip), vehicle: saline with Tween-80
[5] = dose: 60.0 mg/kg/injection, schedule: Q01DX005 (ip), vehicle: saline
[6] = dose: 120.0 mg/kg/injection, schedule: Q01DX005 (ip), vehicle: saline
[7] = dose: 240.0 mg/kg/injection, schedule: Q01DX005 (ip), vehicle: saline
[8] = dose: 12.5 mg/kg/injection, schedule: Q01DX005 (ip), vehicle: saline with Tween-80
[9] = dose: 25.0 mg/kg/injection, schedule: Q01DX005 (ip), vehicle: saline with Tween-80
[10] = dose: 50.0 mg/kg/injection, schedule: Q01DX005 (ip), vehicle: saline with Tween-80
[11] = dose: 50.0 mg/kg/injection, schedule: Q01DX009 (ip), vehicle: saline with Tween-80
[12] = dose: 100.0 mg/kg/injection, schedule: Q01DX009 (ip), vehicle: saline with Tween-80
[13] = dose: 100.0 mg/kg/injection, schedule: Q01DX005 (ip), vehicle: saline with Tween-80
[14] = dose: 200.0 mg/kg/injection, schedule: Q01DX005 (ip), vehicle: saline with Tween-80
[15] = dose: 50.0 mg/kg/injection, schedule: Q01DX005 (ip), vehicle: Klucel (hydroxypropylcellulose) (HPC)
[16] = dose: 100.0 mg/kg/injection, schedule: Q01DX005 (ip), vehicle: Klucel (hydroxypropylcellulose) (HPC)
[17] = dose: 200.0 mg/kg/injection, schedule: Q01DX005 (ip), vehicle: Klucel (hydroxypropylcellulose) (HPC)
[18] = dose: 50.0 mg/kg/injection, schedule: Q01DX009 (ip), vehicle: Klucel (hydroxypropylcellulose) (HPC)
[19] = dose: 50.0 mg/kg/injection, schedule: Q01DX005 (ip), vehicle: saline
[20] = dose: 100.0 mg/kg/injection, schedule: Q01DX005 (ip), vehicle: saline
[21] = dose: 200.0 mg/kg/injection, schedule: Q01DX005 (ip), vehicle: saline

[Se]=[Hf]=[Se]
T/C [1]: 97 % of control
T/C [2]: 97 % of control
T/C [3]: 94 % of control

CN(N=O)c1ccc(/C=C/c2ccnc3ccccc23)cc1
T/C (dose: 88.0 mg/kg/injection, schedule: Q01DX009 (ip), vehicle: saline with Tween-80): 113 % of control
T/C (dose: 132.0 mg/kg/injection, schedule: Q01DX009 (ip), vehicle: saline with Tween-80): 118 % of control
T/C [4]: 154 % of control

CC(C)(C)C1=CC2(C(C)(C)C)OC2C(=O)C1=O (stereo not given)
T/C (dose: 3.12 mg/kg/injection, schedule: Q01DX009 (ip), vehicle: saline with Tween-80): 105 % of control
T/C (dose: 6.25 mg/kg/injection, schedule: Q01DX009 (ip), vehicle: saline with Tween-80): 105 % of control
T/C (dose: 12.5 mg/kg/injection, schedule: Q01DX009 (ip), vehicle: saline with Tween-80): 98 % of control

O=c1c(-c2cccc(O)c2O)coc2cc(OC3OC(CO)C(O)C(O)C3O)ccc12 (stereo not given)
T/C [1]: 100 % of control
T/C [2]: 100 % of control
T/C [3]: 97 % of control

O=[N+]([O-])c1nccn1CCCl
T/C (dose: 12.5 mg/kg/injection, schedule: Q01DX009 (ip), vehicle: distilled water + Tween-80): 95 % of control
T/C (dose: 25.0 mg/kg/injection, schedule: Q01DX009 (ip), vehicle: distilled water + Tween-80): 113 % of control
T/C (dose: 50.0 mg/kg/injection, schedule: Q01DX009 (ip), vehicle: distilled water + Tween-80): 100 % of control

CN(C)c1ccc(C(c2cc3c(cc2O)OCO3)N2CCN(C(c3ccc(N(C)C)cc3)c3cc4c(cc3O)OCO4)CC2)cc1 (stereo not given)
T/C [5]: 96 % of control
T/C [6]: 100 % of control
T/C [7]: 99 % of control

O=C1[N-]C(=S)c2cccn21.O=C1[N-]C(=S)c2cccn21.[Pt+2]
T/C (dose: 6.25 mg/kg/injection, schedule: Q01DX005 (ip), vehicle: saline with Tween-80): 104 % of control
T/C [8]: 107 % of control
T/C [9]: 105 % of control
T/C [10]: 105 % of control

CC(C)(C)N=C(Cc1ccccc1)N1CCCCC1
T/C [11]: 100 % of control
T/C [12]: 96 % of control

CCCCN(CCCC)CC(C)(C)C(O)c1ccc(OC)c2ccccc12 (stereo not given)
T/C [8]: 106 % of control
T/C [9]: 106 % of control
T/C [10]: 101 % of control and 103 % of control

N=Nc1c(OC(=O)Nc2ccccc2)[nH]c2c(Cl)cc(Cl)cc12
T/C [10]: 100 % of control
T/C [13]: 100 % of control
T/C [14]: 98 % of control

CC(=O)Nc1nc([N+](=O)[O-])c(C(C)C)s1
T/C (dose: 100.0 mg/kg/injection, schedule: Q01DX001 (ip), vehicle: saline with Tween-80): 98 % of control
T/C (dose: 200.0 mg/kg/injection, schedule: Q01DX001 (ip), vehicle: saline with Tween-80): 97 % of control
T/C (dose: 400.0 mg/kg/injection, schedule: Q01DX001 (ip), vehicle: saline with Tween-80): 93 % of control

COc1cc(-c2nn(CN3CCOCC3)c(=S)o2)cc(OC)c1OC
T/C [15]: 96 % of control
T/C [16]: 97 % of control
T/C [17]: 99 % of control

COC1/C=C/OC2(C)Oc3c(C)c(O)c4c(c3C2=O)C(=O)C(CO)=C(NC(=O)/C(C)=C\C=C\C(C)C(O)C(C)C(O)C(C)C(OC(C)=O)C1C)C4=O (stereo not given)
T/C [11]: 104 % of control
T/C [12]: 99 % of control
T/C [4]: 112 % of control

O=C1CSc2nc3ccc(Br)cc3c(=O)n21
T/C [10]: 100 % of control
T/C [13]: 95 % of control
T/C [14]: 111 % of control

O=C(O)Cc1c(-c2ccccc2)nc(=S)[nH]c1-c1[nH]c(=S)nc(-c2ccccc2)c1CC(=O)O
T/C [5]: 111 % of control
T/C [6]: 106 % of control
T/C [7]: 96 % of control

O=C(Sc1ccc(Cl)cc1)N1CCN(C(=O)Sc2ccc(Cl)cc2)CC1
T/C [18]: 92 % of control
T/C (dose: 100.0 mg/kg/injection, schedule: Q01DX009 (ip), vehicle: Klucel (hydroxypropylcellulose) (HPC)): 90 % of control
T/C (dose: 200.0 mg/kg/injection, schedule: Q01DX009 (ip), vehicle: Klucel (hydroxypropylcellulose) (HPC)): 94 % of control

COc1ccc(NC(=O)/C=C\C(=O)O)cc1OC
T/C [10]: 96 % of control
T/C [13]: 96 % of control
T/C [14]: 96 % of control

CCOC(=O)c1cn[nH]c1N
T/C (dose: 25.0 mg/kg/injection, schedule: Q01DX009 (ip), vehicle: Klucel (hydroxypropylcellulose) (HPC)): 108 % of control
T/C [18]: 93 % of control

COC(=O)C1CC(C)C1(OC)OC (stereo not given)
T/C [5]: 106 % of control
T/C [6]: 107 % of control
T/C [7]: 101 % of control

Clc1ccc2[nH]c3ccc(Cl)cc3c2c1
T/C [15]: 104 % of control
T/C [16]: 113 % of control
T/C [17]: 113 % of control

CCc1cc2c(=O)[nH]c(-c3cccnc3)nc2s1
T/C [15]: 106 % of control
T/C [16]: 100 % of control
T/C [17]: 88 % of control

CCN(CC)CCN1C(=O)CN=C(c2ccc[nH]2)c2cc(Cl)ccc21
T/C [12]: 90 % of control
T/C (dose: 100.0 mg/kg/injection, schedule: Q04DX003 (ip), vehicle: saline with Tween-80): 100 % of control
T/C (dose: 200.0 mg/kg/injection, schedule: Q04DX003 (ip), vehicle: saline with Tween-80): 100 % of control
T/C (dose: 400.0 mg/kg/injection, schedule: Q01DX009 (ip), vehicle: saline with Tween-80): 95 % of control
T/C (dose: 400.0 mg/kg/injection, schedule: Q04DX003 (ip), vehicle: saline with Tween-80): 95 % of control

C=C1C(=O)OC2/C=C(\C)C(OC(C)=O)C3OC3C(C)(O)CC(OC(=O)/C(C)=C/C)C12 (stereo not given)
T/C (dose: 10.0 mg/kg/injection, schedule: Q01DX009 (ip), vehicle: saline with Tween-80): 99 % of control
T/C (dose: 20.0 mg/kg/injection, schedule: Q01DX009 (ip), vehicle: saline with Tween-80): 104 % of control
T/C (dose: 40.0 mg/kg/injection, schedule: Q01DX009 (ip), vehicle: saline with Tween-80): 107 % of control

CC1(C)OC2(C)CCC1C1C2N1C(=O)NCCCl (stereo not given)
T/C [19]: 108 % of control
T/C [20]: 100 % of control
T/C [21]: 89 % of control

c1ccc2c(c1)N=C(NNC1=Nc3ccccc3SC1)CS2
T/C (dose: 15.0 mg/kg/injection, schedule: Q01DX005 (ip), vehicle: saline with Tween-80): 95 % of control
T/C (dose: 30.0 mg/kg/injection, schedule: Q01DX005 (ip), vehicle: saline with Tween-80): 92 % of control
T/C [1]: 88 % of control

COC(=O)C[C@@]1(C(=O)OC)[C@@H](C(=O)OC)C(C(=O)OC)=NN1C
T/C (dose: 12.5 mg/kg/injection, schedule: Q04DX002 (ip), vehicle: Klucel (hydroxypropylcellulose) (HPC)): 100 % of control
T/C (dose: 25.0 mg/kg/injection, schedule: Q04DX002 (ip), vehicle: Klucel (hydroxypropylcellulose) (HPC)): 98 % of control
T/C (dose: 50.0 mg/kg/injection, schedule: Q04DX002 (ip), vehicle: Klucel (hydroxypropylcellulose) (HPC)): 100 % of control

CC(NC(=O)C(N)CCC(=O)O)C(=O)O (stereo not given)
T/C [19]: 103 % of control
T/C [20]: 100 % of control
T/C [21]: 107 % of control

CC(=O)C1=C(O)C(CC(C)C)NC1=O (stereo not given)
T/C (dose: 25.0 mg/kg/injection, schedule: Q01DX005 (ip), vehicle: Klucel (hydroxypropylcellulose) (HPC)): 102 % of control
T/C [15]: 102 % of control
T/C [16]: 101 % of control
